Source: ChEMBL document CHEMBL1150964, “Munchiwarin, a prenylated chalcone from crotalaria trifoliastrum” (J Nat Prod, 1998)
Converted amounts (≈) assume the structure as drawn. The source made the active and inactive calls. The rule behind the calls is not given here.

Columns and labels:
[1] = Cytotoxicity against human BC1 cells; assay type: functional, cell-based
[2] = test system: KB; experiment: Cytotoxicity against drug-resistant human KB cells in absence of vinblastine; assay type: functional, cell-based
[3] = test system: KB; experiment: Cytotoxicity against drug-resistant human KB cells in presence of vinblastine; assay type: functional, cell-based
[4] = test system: Col2; experiment: Cytotoxicity against human Col2 cells; assay type: functional, cell-based
[5] = target: Human immunodeficiency virus type 1 reverse transcriptase (Human immunodeficiency virus 1) (UniProt Q72547); experiment: Inhibition of HIV1 reverse transcriptase
[6] = test system: KB; experiment: Cytotoxicity against human KB cells; assay type: functional, cell-based

CC(C)=CCC1=C/C(=C(O)\C=C\c2ccc(O)cc2)C(=O)C(CC=C(C)C)(CC=C(C)C)C1=O [MUNCHIWARIN]
IC50 [1]: 9 µg/mL (≈ 19.5 µM) | IC50 [2]: 14 µg/mL (≈ 30.4 µM) | IC50 [3]: 13 µg/mL | IC50 [4]: 9 µg/mL (≈ 19.5 µM) | Activity [5]: inactive | IC50 [6]: 11 µg/mL (≈ 23.9 µM)
